In patent US4117133A, “Vasodilating cuanzine hydrazides” (Inverni Della Beffa S.p.A., priority 1975, dated 1978):
Values after ≈ are worked out from the molar mass of the structure shown. Counter-ions that a name gives are not always drawn.

Assays:
[1] = test system: anaesthetized mongrel dogs; assay: Haemodynamic activities in anaesthetized dogs; type: in vivo; design: key to Flow coronary / Flow femoral / Contractive power of heart: +++: intense increase; ++: moderate increase; +: faint increase; =: no change; settings: intravenous; for Arterial pressure Average variation carotid / Arterial pressure Average variation femoral / Contractive power of heart / Flow coronary / Flow femoral: one twentieth of the LD50: cuanzine HCl 8, hydrazide bitartrate 10, 21-epicuanzine HCl 5, apocuanzine HCl 2.5, dimethylaminoethyl ester 10 mg/kg
Experimental: The products under investigation were administered intravenously to anaesthetized mongrel dogs in doses which were in proportion to the lethal dose (one twentieth of the LD50).
The average of the carotid and femoral arterial pressures, the […] coronary and femoral flow rates and the contractive power of the heart were measured and the results are shown in Table I.

[2] = test system: isolated ileum of guinea pigs; assay: Spasmolytic activity on the isolated ileum of guinea pigs (acetylcholine-induced spasm); settings: limits in parentheses, contact time spasmogenic 1 min, spasmolytic 3 min, interval between administrations 5 min; for IC50: Cavia porcellus, 0.05 h, read-out: ED50 and base limits on spasm induced by 100 mg/ml of acetylcholine
Experimental: (1) (1) induced by 100 mg/ml of acetylcholine
(1) The time of contact of the spasmogenic and spasmolytic substances was
1 and 3 minutes, respectively.
The interval between the administrations was 5 minutes.

| Compound | Arterial pressure Average variation carotid [1] [mm Hg] | Arterial pressure Average variation femoral [1] [mm Hg] | Contractive power of heart [1] | Flow coronary [1] | Flow femoral [1] | IC50 [2] [µg/mL] | haemodynamic activity compared with cuanzine (in words) ([1]; anaesthetized dogs, one twentieth of the LD50) | ED50 and base limits on spasm induced by 100 mg/ml of acetylcholine [2] |
| --- | --- | --- | --- | --- | --- | --- | --- | --- |
| COC(=O)C1=C[C@]23CCO[C@H]2CCN2CCc4c(n1c1c(OC)cccc41)[C@@H]23 [Apocuanzine hydrochloride, Apocuanzine] | -15 | -15 | + | +++ | + | – | – | – |
| COc1cccc2c3c([nH]c12)[C@H]1N(CC3)CC[C@@H]2OCC[C@@]21CC(=NN)C(=O)NN [Cuanzine hydrazide bitartrate] | -30 | -30 | + | +++ | ++ | 74 | – | – |
| COC(=O)[C@]1(O)C[C@]23CCO[C@H]2CCN2CCc4c(n1c1c(OC)cccc41)[C@@H]23 [Cuanzine hydrochloride, reference compound] | -10 | -10 | = | ++ | + | 120 | – | – |
| COc1cccc2c3c4n(c12)[C@](O)(C(=O)OCCN(C)C)C[C@]12CCO[C@H]1CCN(CC3)[C@H]42 [N,N-dimethylaminoethyl nor-cuanzinate] | -10 | -10 | = | ++ | + | – | as active as cuanzine | – |
| COC(=O)C1=C[C@]23CCO[C@H]2CCN2CCc4c(n1c1c(OC)cccc41)[C@@H]23 [Apocuanzine] | – | – | – | – | – | 26.5 (≈ 69.7 µM) | – | – |
| COC(=O)[C@]1(O)C[C@]23CCO[C@H]2CCN2CCc4c(n1c1c(OC)cccc41)[C@H]23 [21-epicuanzine hydrochloride, 21-Epicuanzine (A=β-H,B = CO2 Me, C=OH,D=H) hydrochloride] | -20 | -20 | = | ++ | + | – | – | – |
| 21-epicuanzine | – | – | – | – | – | – | – | 37 (68.8 - 19.9) γ/ml |
